The target in assay [1] is T1, Indoleamine 2,3-dioxygenase 2 (Homo sapiens) (UniProt Q6ZQW0).
T1 sequence (whole entry): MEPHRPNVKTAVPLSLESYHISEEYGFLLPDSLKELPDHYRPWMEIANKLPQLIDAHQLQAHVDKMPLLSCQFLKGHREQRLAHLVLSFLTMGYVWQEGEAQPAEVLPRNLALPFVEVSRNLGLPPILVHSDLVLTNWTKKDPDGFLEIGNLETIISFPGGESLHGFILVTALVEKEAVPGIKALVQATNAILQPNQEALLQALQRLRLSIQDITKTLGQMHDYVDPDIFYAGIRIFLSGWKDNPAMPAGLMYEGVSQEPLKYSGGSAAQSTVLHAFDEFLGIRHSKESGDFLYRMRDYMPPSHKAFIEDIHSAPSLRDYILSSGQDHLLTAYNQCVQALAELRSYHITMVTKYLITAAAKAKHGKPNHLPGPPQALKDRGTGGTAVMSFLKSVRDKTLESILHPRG
Description: Inhibition of human IDO2 at 10 uM using L-tryptophan as substrate incubated for 30 min assessed as reduction in conversion of N-formyl kynurenine to kynurenine relative to control.

The target of assay [2] is T2, Indoleamine 2,3-dioxygenase 2 (Homo sapiens, UniProt Q6ZQW0).
T2 sequence (Q6ZQW0 whole entry): T1 sequence (whole entry)
Description: Inhibition of human IDO2 using L-tryptophan as substrate assessed as reduction in conversion of N-formyl kynurenine to kynurenine.

The target in assay [3] is T3, Indoleamine 2,3-dioxygenase 1 (Homo sapiens, UniProt P14902). Description: Inhibition of IDO1 (unknown origin) using L-tryptophan as substrate incubated for 30 min assessed as reduction in conversion of N-formyl kynurenine to kynurenine by dixon plot analysis.
T3 sequence (P14902 whole entry): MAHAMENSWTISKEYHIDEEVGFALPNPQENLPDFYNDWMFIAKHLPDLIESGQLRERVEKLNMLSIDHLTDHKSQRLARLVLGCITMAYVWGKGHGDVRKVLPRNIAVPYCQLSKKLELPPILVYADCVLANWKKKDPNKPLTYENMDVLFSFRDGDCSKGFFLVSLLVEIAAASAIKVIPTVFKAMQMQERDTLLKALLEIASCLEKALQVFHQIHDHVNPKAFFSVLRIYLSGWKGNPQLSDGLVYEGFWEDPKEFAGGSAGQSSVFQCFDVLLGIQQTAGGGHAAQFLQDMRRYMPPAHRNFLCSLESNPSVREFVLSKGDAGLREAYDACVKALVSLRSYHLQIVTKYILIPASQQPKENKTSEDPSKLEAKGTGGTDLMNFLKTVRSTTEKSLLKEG
For assay [4], the target named is T3, Indoleamine 2,3-dioxygenase 1. Description: Inhibition of IDO1 in human U87MG cells in presence of L-tryptophan incubated for 24 h. Format: cell-based.

Usually inhibition stands for the percentage by which the read-out fell short of the control. For orientation: IC50 means the concentration that inhibits the measured activity by half. With `O=C1c2cc([N+](=O)[O-])ccc2-n2c1nc1ccccc1c2=O`, the inhibition in assay [1] was 63%. Also, in assay [2], the IC50 was 0.00187 mM.
As a reminder, the Ki is the dissociation constant of the complex between target and ligand, obtained from inhibition or displacement. For the compound `O=C1c2ccccc2-n2c1nc1ccc(F)cc1c2=O`, the inhibition in assay [1] lay within 18 to 47%. Moreover, the inhibition constant Ki in assay [3] was > 3.9 mM. For the same compound, in assay [4], the IC50 is > 3.9 mM.
Regarding `Cn1cc(C[C@H](N)C(=O)O)c2ccccc21`, in assay [1], the inhibition is 8%.
`O=C1c2cc(F)ccc2-n2c1nc1ccccc1c2=O`: in assay [1], the inhibition lay within 18 to 47%.
Still for that read-out and setting: the result for `O=C1c2ccccc2-n2c1nc1ccccc1c2=O` reads 18 to 47%.
Still for that read-out and setting: the result for `O=C1c2c(Cl)cccc2-n2c1nc1ccccc1c2=O` reads 18 to 47%; that for `Cn1cc(C[C@@H](N)C(=O)O)c2ccccc21`, 8%.
For the compound `O=C1c2cc(F)ccc2-n2c1nc1ccc(F)cc1c2=O`, the inhibition in assay [1] was 18 to 47%.
With `Cc1ccc2c(c1)C(=O)c1nc3ccccc3c(=O)n1-2`, the inhibition in assay [1] is 18 to 47%. Further, the IC50 in assay [4] is > 3.9 mM.
With `O=C1c2cc(Br)ccc2-n2c1nc1ccccc1c2=O`, the inhibition in assay [1] fell in the range of 18 to 47%.
On the same count and under the same terms, the result for `O=C1c2ccc(Cl)cc2-n2c1nc1ccccc1c2=O` reads 18 to 47%.

The values above are taken from ChEMBL document CHEMBL4482322, “Uses of tryptanthrin and derivative thereof in preparing hldo2 inhibitor” (2017).
